The text below walks through data of patent US7507792B2, “MDA-7 proteins and methods of use thereof” (The Trustees of Columbia University In The City of New York, priority 1993, dated 2009).

“Also recorded” adds a separate entry of the source.

Common to all, as to assay type: cell-based, human
For test [1], the system named is mda-7. Nature of the test: mda-7 expression (Northern blotting, RT-PCR). As to conditions: for mda-7 expression: H0-1. As for the experimental part: (§1) The mass excision of the library was performed using ExAssist helper phage as described above. The SOLR strain of Escherichia coli and cDNA phagemids were mixed at 37° C. for 15 min and plated onto LB plates containing ampicillin and IPTG/X-gal. White colonies were chosen at random, isolated and grown in LB medium. Plasmid minireps and restriction enzyme digestions were performed to confirm the presence of inserts. The inserts were isolated and used as robes for Northern blotting analysis (5,25). […] Radiolabeled probes were generated by random oligonucleotide priming (25). Prehybridization, hybridization, posthybridization washes, and autoradiography were performed as described (5,18,25).

Test [2] concerns mda-9. Nature of the test: mda-9 expression (Northern blotting). The settings on record: H0-1. On the procedure:
as §1

Test [3] concerns H0-1 cells. Put plainly: Northern blotting analysis of steady-state mRNA levels. The settings on record: FIG. 1 concentrations. On the procedure:
Steady-state levels of specific mRNAs were determined by Northern blotting analysis of total RNA probed with appropriate ^32P-labeled gene probes as described previously (14-16). RNAs were analyzed from cells treated with inducer for 24 hours, treated for 24 hours with inducer followed by growth for 72 hours in the absence of inducer, or treated continuously for 96 hours with the inducer. The concentration of inducing compounds used were the same as those used for growth studies. The effect of conditioned medium on gene expression changes was determined by treating H0-1 cells for 24 hours with a 1:2 dilution of conditioned medium (equal volumes of conditioned medium and DMEM supplemented with 10% fetal bovine serum (DMEM-10) or for 96 hours with a 1:4 dilution of conditioned medium (1 vol. of conditioned medium to 3 vol. of DMEM-10). The probes used in the present study were specific for β-actin (17), γ-actin (17), c-jun (18), c-myc (19), fibronectin (20), gro/MGSA (21), HLA Class I antigen (22), HLA Class II antigen (HLA-DRβ) (22), α5 integrin (23), β1 integrin (24), ISG-15 (25), ISG-54 (25), jun-B (26), and tenascin (27). Northern blots were also probed with a ^32P-labeled GAPDH gene (15) to verify similar mRNA expression under the various experimental conditions. Following hybridization, the filters were washed and exposed for autoradiography.

The subject of test [4] is mda-8. Put plainly: mda-8 expression (Northern blotting). The settings on record: H0-1. On the procedure: as §1
Test [5] relates to mda-6. Put plainly: mda-6 expression (Northern blotting). As for the experimental part: as §1
Total cytoplasmic RNA was isolated and Northern blotting hybridization was performed as described (Reddy et al., 1991; Su et al., 1991; Jiang et al., 1992). Ten μg of RNA was denatured with glyoxal/DMSO, electrophoresed on 1.0% agarose gels, transferred to nylon membranes and hybridized to a ^32P-labeled p53 probe (Baker et al., 1990). The nylon membrane was stripped and hybridized to a ^32P-labeled mda-6 probe (Jiang and Fisher, 1993) and then after a second stripping the membrane was hybridized to a ^32P-labeled rat GAPDH probe (Fort et al., 1985), as described previously (Reddy et al., 1991; Su et al., 1991; Jiang et al., 1992). Following hybridization, the filters were washed and exposed for autoradiography (Reddy et al., 1991; Su et al., 1991; Jiang et al., 1992). mda-6 and GAPDH gene expression were also determined by reverse transcription-polymerase chain reaction (RT-PCR) as described (Adollahi et al., 1991; Lin et al., 1994; Jiang et al., 1994b). Total cytoplasmic RNA was treated with 0.5 units DNase (Boehringer-Mannheim Biochemicals)/μg RNA in 15% glycerol, 10 mM Tris, pH 7.5, 2.5 mM MgCl2, 0.1 mM EDTA, 80 mM KCl, 1 mM CaCl2 and 1 unit/ml RNasin (Promega) at 30° C. for 10 min. RNA was extracted with phenol-chloroform, precipitated with sodium acetate/ethanol and RNA pellets were resuspended in diethylpyrocarbonate-treated H2O. One μg of total RNA was reverse transcribed with 200 units of murine leukemia virus reverse transcriptase (Bethesda Research Laboratories) in 20 μl containing 1 mM deoxyribonucleotide triphosphates, 4 mM MgCl2, 10 mM Tris, pH 8.3, 50 mM KCl, 0.001% gelatin and 0.2 μg oligo-dT primer. Samples were adjusted to 100 μl with buffer containing 0.2 mM deoxyribonucleotide triphosphates, 2 mM MgCl2, 10 mM Tris, pH 8.3, 50 mM KCl and 0.001% gelatin. Fifty pmol of each primer, 1.5 units Taq DNA polymerase (Perkin-Elmer Cetus) were added and samples were covered with mineral oil, heated at 95° C. for 5 min and subjected to 25 cycles of PCR in a Perkin-Elmer Thermal Cycler using 1 min denaturation at 94° C., 2 min annealing at 55° C. and 3 min polymerization at 72° C. After extraction with chloroform, 20 μl of products were electrophoresed, blotted onto nylon filters and hybridized with an mda-6 or GAPDH specific probe. The mda-6 primers were 5′ to 3′ […] (SEQ ID NO:26) and […] (SEQ ID NO:27)(corresponding to nt 1527 to 1546) (GenBank accession number U09579); and the GAPDH primers were 5′ to 3′ […] (SEQ ID NO:28)and […] (SEQ ID NO:29)(corresponding to nt 1070 to 1053) (Tokunaga et al., 1987).

[6] abbreviates: 96 hours, doses of FIG. 15 legend.
Setting [7] is: terminally differentiated HL-60 cells, TPA for 2 days, RA for 4 days.
[8] abbreviates: H0-1, 96 hours, doses of FIG. 15 legend.
Setting [9] is: 24 hours, doses of FIG. 19, phenyl butyrate 24 hours, 4 days or 7 days.

Take `CC1=C(/C=C/C(C)=C/C=C/C(C)=C/C(=O)O)C(C)(C)CCC1` [RA, trans-retinoic acid]: the mda-7 expression entry in test [1] (setting [6]) is reported as “does not induce growth changes or induce mda-7 expression”. Besides, the “mda-7 expression (RT-PCR)” value in test [1] (LAN human neuroblastoma cells, 5 days) is recorded as “not induced”. Also, the “mda-7 expression (RT-PCR)” value in test [1] (setting [7]) is reported as “persists”. Also, the mda-9 expression entry in test [2] (setting [6]) was “No change in mda-9 expression”. In addition, in test [3] (96 h), the “HLA Class I antigen gene expression” value is “did not significantly alter”, the fibronectin expression entry is on record as “least effective”, the “induction of gro/MGSA gene expression” value is “did not” and the tenascin expression entry was “decreased tenascin expression”. Further, in test [3] (96 h), the α5 integrin expression entry is recorded as “reduced”; the “β-actin and γ-actin expression” value is listed as “did not significantly alter”. Moreover, the mda-8 expression entry in test [4] (setting [6]) was “No change in expression”. For the same compound, the mda-6 expression result in test [5] (setting [8]) is “no significant or reduced alteration in expression”.
`CCCCCCCCCCCCCC(=O)O[C@@H]1[C@@H](C)[C@@]2(O)[C@@H](C=C(CO)C[C@]3(O)C(=O)C(C)=C[C@@H]23)[C@@H]2C(C)(C)[C@]12OC(C)=O` [TPA, 12-O-tetradecanoyl-phorbol-13-acetate]: the “mda-7 expression (RT-PCR)” value is reported as “induced” in test [1] (HL-60 and U-937 cells); “persists” in test [1] (setting [7]). Besides, in test [5] (human histiocytic lymphoma, U-937, cells, differentiation and growth arrest), the mda-6 expression result is reported as “induced”.
For the compound `C=C(C)[C@@]12O[C@@]3(c4ccccc4)O[C@@H]1[C@@H]1[C@@H]4O[C@]4(CO)[C@@H](O)[C@]4(O)C(=O)C(C)=C[C@H]4[C@@]1(O3)[C@H](C)[C@H]2OC(=O)/C=C/C=C/c1ccccc1` [MEZ, mezerein], in test [1] (setting [9]), the mda-7 expression entry is “increased mda-7 expression”. Moreover, in test [1] (setting [6]), the mda-7 expression entry is recorded as “Increased expression”. Further, the mda-9 expression entry in test [2] (setting [9]) was “Increased expression”. In addition, in test [2] (setting [6]), the mda-9 expression result was “No change in mda-9 expression”. In addition, in test [3] (96 h), the “HLA Class I antigen gene expression” value was “did not significantly alter”, the fibronectin expression result is given as “less potent”, the “induction of gro/MGSA gene expression” value was “did not” and the tenascin expression entry was “decreased tenascin expression”. For the same compound, in test [3] (96 hours), the “c-jun and jun-B expression” value is given as “increase”; the c-myc expression result was “downregulated”. For the same compound, the mda-8 expression entry in test [4] (setting [9]) is “No change in expression”. Also, the mda-8 expression entry in test [4] (setting [6]) is given as “No change in expression”. The mda-6 expression result in test [5] (H0-1, 24 hours, doses of FIG. 19, phenyl butyrate 24 hours, 4 or 7 days) is listed as “increased expression; also recorded: smaller induction of mda-6 expression”. The mda-6 expression entry in test [5] (setting [8]) was “no significant or reduced alteration in expression”.
